Measurements published in patent US20060134102A1, “Lymphotoxin beta receptor agents in combination with chemotherapeutic agents” (Biogen Idec MA Inc., priority 2002, published 2006).
Several values for one entry are separate records, joined by “and”; a condition that tells them apart may be missing. Identical values can stand only once.

How the values were obtained:
[1] = test system: WiDr human colorectal adenocarcinoma; assay: WiDr xenograft model: growth of established WiDr human colorectal tumors in athymic nude mice (tumor volume/weight, % T/C, Fa, Combination Index); conditions: for Volume Decrease: vs control; for Individual Fractional Inhibition of Tumor Volume / Individual Tumor Volumes: individual animals
Experimental: Therapeutic agents, i.e. LTβR agonist and chemotherapeutic agents, were administered to athymic nude mice who had been implanted with WiDr tumor cells.
WiDr cells were obtained from the American Type Culture Collection (Manassas, Va.). Cells were grown in vitro in 90% Eagle's Minimum Essential Medium with 2 mM L-glutamine and Earle's Balanced Salt Solution (BSS) adjusted to contain 1.5 g/L sodium bicarbonate, 0.1 mM non-essential amino acids, and 1 mM sodium pyruvate plus 10% fetal bovine serum (FBS) without antibiotics (5% CO2). Bacterial cultures were performed on aliquots of the tumor homogenate preparation that was implanted into the mice to ensure that all cultures were negative for bacterial contamination at both 24 and 48 hours post implant.
When the tumors measured approximately 5 mm in length by 5 mm in width, mice were randomized to treatment and control groups. Body weight measurements were recorded twice-weekly beginning on Day 0.
Tumor measurements were determined using Vernier calipers. Tumor size measurements were recorded regularly according to the study, until the termination of the study. The formula to calculate volume for a prolate ellipsoid was used to estimate tumor volume (mm^3) from 2-dimensional tumor measurements: tumor volume (mm^3)=(length×width^2 [L×W^2])÷2. Assuming unit density, volume was converted to weight (i.e., 1 mm^3=1 mg). Tumor growth inhibition was assessed as % T/C, where T is the mean tumor weight of the treatment group and C is the mean tumor weight of the control group. […] Animals were sacrificed accordingly.
Statistical analysis of the tumor weight measurements was performed according to standard statistical methods. Mean, standard deviation (SD), and standard error of the mean (SEM) were determined for body weight and tumor weight for all dose groups at all assessments.
Antitumor efficacy was determined by comparing each treatment group's tumor volume with the control group's tumor volume. Mean tumor volume decrease was calculated as the difference between the control group and the treatment group mean tumor volume. The fractional inhibition of tumor volume, i.e., the fraction affected (Fa), was calculated by dividing the treatment group mean tumor volume decrease by the control group mean tumor volume. […] Further statistical analysis was performed accordingly.

[2] = test system: KM-20L2 human colorectal adenocarcinoma; assay: KM-20L2 xenograft model: growth of established KM-20L2 human colorectal tumors in athymic nude mice (tumor volume/weight, % T/C, Fa, Combination Index); assay type: in vivo; conditions: for Mean Fraction Affected (Fa): Camptosar 3 mg/kg alone; for Fraction affected (Fa): Camptosar 6.0 mg/kg given separately

## COc1cccc2c1C(=O)c1c(O)c3c(c(O)c1C2=O)C[C@@](O)(C(=O)CO)C[C@@H]3O[C@H]1C[C@H](N)[C@H](O)[C@H](C)O1 [Adriamycin, adriamycin, reference compound]
[1]; Adriamycin 4 mg/kg, day 35
  Fa (fractional inhibition of tumor volume), group mean: −0.204
  Fa, individual animals: 0.033 and −0.408 and −1.391 and 0.530 and −0.660 and −0.137 and −0.379 and −0.389 and 0.251 and 0.512
  Tumor Volume, group mean: 1353.0
  Tumor volume, individual animals: 1582.5 and 2687.5 and 528.1 and 1865.5 and 1277.8 and 1550.2 and 1560.9 and 842.1 and 548.3
  Volume Decrease vs control, group mean: −229.0
[1]; Adriamycin 6 mg/kg, day 35
  Fa (fractional inhibition of tumor volume), group mean: 0.089
  Fa, individual animals: −0.295 and 0.095 and 0.380 and 0.462 and 0.198 and 0.209 and 0.057 and −0.060 and 0.522 and −0.674
  Tumor Volume, group mean: 1023.5
  Tumor volume, individual animals: 1455.4 and 696.6 and 605.1 and 901.8 and 889.3 and 1191.2 and 537.2 and 1881.7
  Volume Decrease vs control, group mean: 100.5
[1]; adriamycin 1 mg/kg to 6 mg/kg intraperitoneal, all tested doses
  Activity by NCI criteria (% T/C at or below 42): inactive
[1]; adriamycin 6 mg/kg or 4 mg/kg, day 35, separate study
  Inhibition of tumor growth: did not produce a significant inhibition
[1]; adriamycin groups, day 42 (end of study)
  Tumor growth vs vehicle control: no significant difference

## CCc1c2c(nc3ccc(OC(=O)N4CCC(N5CCCCC5)CC4)cc13)-c1cc3c(c(=O)n1C2)COC(=O)[C@]3(O)CC [Camptosar, irinotecan, reference compound]
[1]; Camptosar 3 mg/kg, day 21
  Fa (Fraction Affected), group mean: 0.238
  Fa, individual animals: 0.336 and 0.314 and 0.078 and 0.269 and 0.245 and −0.068 and 0.513 and 0.208 and 0.093
[1]; Camptosar 6 mg/kg, day 21
  Fa (Fraction Affected), group mean: 0.441
  Fa, individual animals: 0.302 and 0.473 and 0.521 and 0.544 (2×) and 0.590 and 0.110 and 0.614 and 0.277
[1]; Camptosar 10 mg/kg, day 21
  Fa (Fraction Affected), group mean: 0.476
  Fa, individual animals: 0.464 and 0.347 and 0.575 and 0.375 and 0.573 and 0.163 and 0.516 and 0.684 and 0.648
[1]; Camptosar […] to 10 mg/kg
  Activity by NCI criteria (% T/C of 42 or less): inactive
[1]; Camptosar combined with huCBE11 (0.555:1), day 21
  Median Effect Dose: 5.7 mg/kg
[1]; Camptosar given separately, day 21
  Median Effect Dose: 9.8 mg/kg
[2]; Camptosar
  Activity by NCI criteria (% T/C at or below 42): active
[2]; Day 9
  Mean Fraction Affected (Fa): 0.098
[2]; Day 13
  Mean Fraction Affected (Fa): 0.327
[2]; Day 20
  Mean Fraction Affected (Fa): 0.593
  Fraction affected (Fa): 0.781
[2]; Day 23
  Mean Fraction Affected (Fa): 0.521
  Fraction affected (Fa): 0.759
[2]; Day 30
  Mean Fraction Affected (Fa): 0.406
  Fraction affected (Fa): 0.607
[2]; Camptosar 6 mg/kg days 13 through 51, 3 mg/kg days 13 through 48, […] days 9 through 44, separate study
  Inhibition of tumor growth vs saline control: statistically significant inhibition of tumor growth
[2]; Day 16
  Fraction affected (Fa): 0.594
[2]; Day 27
  Fraction affected (Fa): 0.701
[2]; Day 34
  Fraction affected (Fa): 0.564
[2]; Day 37
  Fraction affected (Fa): 0.495
[2]; Camptosar groups, end of day 55, separate study
  Tumor inhibition: no significant tumor inhibition
[2]; Combined (1:0.63 huCBE11:Camptosar), dose of the labelled agent in the combination, Day 13
  Median Effect Dose: 6.7 mg/kg
[2]; Combined (1:0.63 huCBE11:Camptosar), dose of the labelled agent in the combination, Day 16
  Median Effect Dose: 1.6 mg/kg
[2]; Combined (1:0.63 huCBE11:Camptosar), dose of the labelled agent in the combination, Day 20
  Median Effect Dose: 0.6 mg/kg
[2]; Combined (1:0.63 huCBE11:Camptosar), dose of the labelled agent in the combination, Day 23
  Median Effect Dose: 0.7 mg/kg
[2]; Combined (1:0.63 huCBE11:Camptosar), dose of the labelled agent in the combination, Day 27
  Median Effect Dose: 1.0 mg/kg
[2]; Combined (1:0.63 huCBE11:Camptosar), dose of the labelled agent in the combination, Day 30
  Median Effect Dose: 1.1 mg/kg
[2]; Combined (1:0.63 huCBE11:Camptosar), dose of the labelled agent in the combination, Day 34
  Median Effect Dose: 1.1 mg/kg
[2]; Combined (1:0.63 huCBE11:Camptosar), dose of the labelled agent in the combination, Day 37
  Median Effect Dose: 1.0 mg/kg
[2]; Combined (1:0.63 huCBE11:Camptosar), dose of the labelled agent in the combination, Day 41
  Median Effect Dose: 1.0 mg/kg
[2]; Given Separately, Day 13
  Median Effect Dose: 12.4 mg/kg
[2]; Given Separately, Day 16
  Median Effect Dose: 4.0 mg/kg
[2]; Given Separately, Day 20
  Median Effect Dose: 2.3 mg/kg
[2]; Given Separately, Day 23
  Median Effect Dose: 2.7 mg/kg
[2]; Given Separately, Day 27
  Median Effect Dose: 3.2 mg/kg
[2]; Given Separately, Day 30
  Median Effect Dose: 4.2 mg/kg
[2]; Given Separately, Day 34
  Median Effect Dose: 4.7 mg/kg
[2]; Given Separately, Day 37
  Median Effect Dose: 6.0 mg/kg
[2]; Given Separately, Day 41
  Median Effect Dose: 7.3 mg/kg

## N.N.[Cl][Pt][Cl] [Cisplatin, cisplatin, reference compound]
[1]; Cisplatin 1 mg/kg, day 44
  Fa (fractional inhibition of tumor volume), group mean: 0.083
  Fa, individual animals: −0.478 and 0.344 and 0.025 and −0.016 and 0.140 and 0.102 and 0.222 and 0.128 and 0.098 and 0.268
  Tumor Volume, group mean: 1300.4
  Tumor volume, individual animals: 2096.4 and 930.1 and 1383.3 and 1440.7 and 1220.3 and 1274.3 and 1103.9 and 1236.7 and 1280.0 and 1038.3
  Volume Decrease vs control, group mean: 118.2
[1]; Cisplatin 2 mg/kg, day 44
  Fa (fractional inhibition of tumor volume), group mean: 0.055
  Fa, individual animals: 0.082 and −0.061 and −0.036 and 0.618 and −0.290 and −0.523 and 0.241 and 0.054 and 0.316 and 0.151
  Tumor Volume, group mean: 1340.1
  Tumor volume, individual animals: 1301.9 and 1505.3 and 1469.5 and 541.4 and 1829.8 and 2160.2 and 1076.4 and 1342.0 and 970.2 and 1204.2
  Volume Decrease vs control, group mean: 78.5
[1]; cisplatin 2 mg/kg to 0.25 mg/kg
  Activity by NCI criteria (% T/C of 42 or less): inactive
[1]; cisplatin 2 mg/kg, 1 mg/kg and 0.25 mg/kg, day 50
  Tumor growth vs saline control: did not differ significantly

## CC(=O)O[C@H]1C(=O)[C@@]2(C)[C@H]([C@H](OC(=O)c3ccccc3)[C@]3(O)C[C@H](OC(=O)[C@H](O)[C@@H](NC(=O)c4ccccc4)c4ccccc4)C(C)=C1C3(C)C)[C@]1(OC(C)=O)CO[C@@H]1C[C@@H]2O [Taxol, reference compound]
[1]; Day 34, Taxol 12.5 mg/kg
  Fa (Fraction Affected): 0.171
  Tumor Volume: 1141.1
[1]; Day 34, Taxol 18.75 mg/kg
  Fa (Fraction Affected): 0.588
  Tumor Volume: 567.5
  Volume Decrease: 808.9
[1]; Day 34, Taxol 25 mg/kg
  Fa (Fraction Affected): 0.812
  Tumor Volume: 259.1
  Volume Decrease: 1117.3
[1]; Day 34, Taxol Given Separately
  Median Effect Dose: 12.6 mg/kg
[1]; Day 34, Taxol dose, Combined (0.333:1) with huCBE11
  Median Effect Dose: 6.6 mg/kg
[1]; Day 34, Taxol 6.25
  Individual Fractional Inhibition of Tumor Volume: 0.231 and −0.036 and 0.421 and 0.375 and 0.469 and 0.157 and 0.552 and 0.284 and −0.217 and 0.168
  Individual Tumor Volumes: 1058.1 and 1425.5 and 796.7 and 860.4 and 730.5 and 1159.9 and 616.0 and 985.1 and 1675.4 and 1144.5
[1]; Day 34, Taxol 12.5
  Individual Fractional Inhibition of Tumor Volume: 0.854 and 0.191 and 0.140 and 0.037 and −0.278 and 0.170 and 0.192 and −0.130 and 0.198 and 0.336
  Individual Tumor Volumes: 201.1 and 1113.1 and 1183.1 and 1325.2 and 1759.5 and 1143.0 and 1112.7 and 1554.9 and 1104.0 and 914.1
[1]; Taxol 12.5 mg/kg, […] and 3.13 mg/kg
  Tumor growth vs vehicle control: did not differ significantly
[1]; Taxol 18.75 mg/kg, Days 21 to 34
  % T/C: below 42%
[1]; Taxol 25 mg/kg, Days 13 to 39
  % T/C: below 42%
[1]; Taxol 25 mg/kg, Days 21 to 50
  % T/C: below 42%
[1]; Taxol 12.5, 6.25 and 3.13 mg/kg, throughout the study
  % T/C: > 82%
